This experiment deals with E. coli. How it is done:
Susceptibility cultures can be started.
(§1) Then, the Proteus automated system can add 12 μL of 1M NaOH to the 30 μL sample. […] The Proteus system can then add 8 μL of 1M HCl. Ten microliters of the result can be placed on each of 4 sensors of the 16 available on the GeneFluidics, Inc. 16X EC chip. This chip can be incubated in the Proteus machine for 11 minutes at 43° C. After completion of this incubation, the chip can be washed and dried by Proteus. Ten microliters of 0.5 U/mL anti-fluorescein horseradish peroxidase (HRP) Fab fragments (Roche; diluted in 1.0% casein in […] phosphate-buffered saline, pH 7.4) can be injected into the sensor chambers and incubated for 2 minutes at 25° C.
as §1
For instance, a Helios potentiostat from GeneFluidics, Inc. was connected to the electrodes of the sensor chips and a potential of −250 mV was applied across the electrodes for one minute. During this time, the current generated by the electrochemical reaction was measured by the potentiostat. The average current measured in the final 10 seconds of the potentiostat reading constituted the final result of the assay.

The source of these data is patent US11154853B2, “Generation of data for use with antimicrobials” (GeneFluidics, Inc., priority 2017, dated 2021).

Where two headings read alike, the source gives them in different places.

For `O=C(O)c1cn(C2CC2)c2cc(N3CCNCC3)c(F)cc2c1=O` [ciprofloxacin], for the setting “0 minute susceptibility culture time, 0.4 μg antibiotic in 100 μL Mueller-Hinton broth, 5×10^5 CFU/mL”, the “average current signal of the four sensors (base susceptibility test)” value is listed as 30 nA. The “increase over the current level from base susceptibility test” value (60 minute susceptibility culture time) is 0% and the “increase over the current level from base susceptibility test” value (90 minute susceptibility culture time) is recorded as 0%. For the same molecule, where the note is “60 minute susceptibility culture time, 0.4 μg antibiotic in 100 μL Mueller-Hinton broth”, the “current of processed sample” value worked out at 30 nA. The “reported result (resistant / susceptible)” value (E. coli from patient urine sample, at the concentration of antibiotic in the culture) is reported as “susceptible”.
